The structures appear in SMILES notation. Active and inactive are the calls of the source. The calls are words filed in the database; no cut-off is given here.

This assay concerns Mus musculus. Briefly: Suppression of lung injury in mouse model of influenza A virus H1N1 infection-induced lung injury assessed as decrease in lung resistance at 30 ug/ml dosed via drinking water. It counts as functional, organism-based.

In the case of `c1ccc(-c2ccc(CNCCNCc3ccc(-c4ccccn4)cc3)cc2)nc1`, the result was Active.

Source of the values: ChEMBL document CHEMBL4419167, “Compositions and methods for treating respiratory injury or disease” (2018).
